{
  "source": "patent US12617783B2",
  "about": "“Heterocyclic GLP-1R agonists” (BIOMEA FUSION, INC., priority 2024, dated 2026)",
  "key": {"[1]": {"system": "Type 2 diabetic donor islets", "assay": "Glucose-stimulated insulin secretion (GSIS) in Type 2 diabetic donor islets cultured ex vivo", "type": "cell-based", "conditions": "islets cultured ex vivo for 8 days (FIG. 1A) or 12 days (FIG. 1B); compared with orforglipron or DMSO", "description": "Islets from a Type 2 diabetic donor were cultured ex vivo for 8 days (FIG. 1A) or 12 days (FIG. 1B) were assayed for GSIS in the presence of compound 36 (cpd 36), orforglipron or DMSO. Basal insulin secretion, stimulated insulin secretion and secretion index were measured."}, "[2]": {"system": "islets from a non-diabetic donor", "assay": "Glucose-stimulated insulin secretion (GSIS) in non-diabetic donor islets cultured ex vivo", "type": "cell-based", "conditions": "compared with orforglipron or DMSO", "description": "Donor islets cultured ex vivo were assayed for GSIS in the presence of compound 36 (cpd 36), orforglipron or DMSO. Basal insulin secretion, stimulated insulin secretion and secretion index were measured.\nDonor islets cultured ex vivo were assayed for GSIS in the presence of compound 214, orforglipron or DMSO. Basal insulin secretion, stimulated insulin secretion and secretion index were measured."}, "[3]": {"target": "T1, human GLP-1R (Homo sapiens, UniProt P43220)", "T1 construct": "host or cells: HEK293", "T1 sequence (P43220 24-463)": "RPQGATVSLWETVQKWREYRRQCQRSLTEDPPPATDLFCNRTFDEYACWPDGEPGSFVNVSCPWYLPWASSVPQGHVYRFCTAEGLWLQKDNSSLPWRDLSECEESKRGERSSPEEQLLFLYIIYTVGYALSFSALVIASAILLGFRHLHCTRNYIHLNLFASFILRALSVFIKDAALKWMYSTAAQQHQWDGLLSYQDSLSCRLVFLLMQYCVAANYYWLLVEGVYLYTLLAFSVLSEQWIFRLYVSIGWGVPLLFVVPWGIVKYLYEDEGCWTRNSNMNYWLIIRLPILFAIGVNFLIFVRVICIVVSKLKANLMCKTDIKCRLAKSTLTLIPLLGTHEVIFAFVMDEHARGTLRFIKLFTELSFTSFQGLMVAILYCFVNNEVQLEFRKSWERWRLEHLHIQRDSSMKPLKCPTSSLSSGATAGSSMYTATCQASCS", "assay": "GLP-1R cAMP assay (Example B1a, HTRF, 30 min at room temperature)", "type": "cell-based", "how_it_was_run": "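Competitive HTRF read-out of cAMP after 30 min room-temperature stimulation, BETP absent, of human GLP-1R-HEK293 cells (1,000/well) in HEPES buffer with 500 μM IBMX and 0.1% BSA. Activation normalised to GLP-1(7-37) positive control. EC50 from 4-parameter non-linear regression.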"}, "[4]": {"system": "ex-vivo cultured islets from a T2D donor", "assay": "Glucose-Stimulated Insulin Secretion (GSIS) assay, islets from a T2D donor", "type": "cell-based", "description": "(§1) Glucose-Stimulated Insulin Secretion (GSIS) Assay\n(§2) Purified islets from healthy or Type 2 diabetic donors (Prodo Laboratory, Inc., Aliso Viejo, CA) were cultured in PIM(S) media (Prodo) with 8 mM or 11 mM glucose in a 37° C. water-jacketed incubator with 5% CO2. The GSIS assay followed published procedure (Zhu et al. 2015; Ho et al. 2023). Briefly, islets were conditioned in Krebs-Ringer bicarbonate buffer (KRB, 111 mM NaCl, 4.8 mM KCl, 25 mM NaHCO3, 2.3 mM CaCl2, 1.2 mM MgSO4, 0.15 mM Na2HPO4, 1.2 mM KH2PO4, 10 mM HEPES, 0.2% BSA) containing 2.8 mM glucose for 2 hours with 0.05% DMSO, compound 36 or orforglipron. Size-matched islets were used for each test condition. Islets were washed with KRB once and incubated in fresh KRB containing 2.8 mM glucose with 0.05% DMSO or corresponding compound for one hour to measure the basal insulin secretion in 2.8 mM glucose. Glucose concentration was increased to 11 mM and islets stimulated for one hour in the presence of 0.05% DMSO or corresponding compound to measure stimulated insulin secretion. Supernatants were harvested and insulin secreted under basal and glucose stimulated conditions were quantified using an ELISA kit (ALPCO, Salem, NH). Islets were lysed and genomic DNA was extracted using silicon spin column (Qiagen, Venlo, Netherlands). Insulin secretion was normalized to total genomic DNA.\nInsulin secretion index is the ratio of stimulated insulin secretion at 11 mM glucose/basal insulin secretion at 2.8 mM glucose. […] (Ho, K. H., A. Jayathilake, Y. Mahircan, A. Nour, A. B. Osipovich, M. A. Magnuson, G. Gu, and I. Kaverina. 2023. CAMSAP2 localizes to the Golgi in islet beta-cells and facilitates Golgi-ER trafficking, iScience, 26:105938.Zhu X., R. Hu, M. Brissova, R. W. Stein, A. C. Powers, G. Gu, and I. Kaverina. 2015. Microtubules Negatively Regulate Insulin Secretion in Pancreatic beta Cells, Dev Cell, 34:656-68)."}, "[5]": {"system": "ex-vivo cultured islets from a healthy donor", "assay": "Glucose-Stimulated Insulin Secretion (GSIS) assay, islets from a healthy donor", "type": "cell-based", "conditions": "compared to DMSO, FIG. 2", "description": "as §1\nas §2, with “DNA. […]” for “DNA.”"}, "[6]": {"assay": "Pharmacokinetic analysis in male SD rats", "type": "in vivo", "description": "The rats have free access to food and water. Blood samples were collected pre-dose and 0.083, 0.25, 0.5, 1, 2, 4, 8, 24 hours post dose for i.v. administration group. Blood samples were also collected pre-dose and 0.25, 0.5, 1, 2, 4, 8, and 24 hours after administration in orally dosing group."}, "[7]": {"conditions": "cynomolgus monkey, in vivo", "protocol": "(§3) Pharmacokinetic Analysis of the Compound 36, Compound 121, Compound 214, and Orforglipron in Cynomolgus Monkeys\n(§4) Non naïve male cynomolgus monkeys (n=3 monkeys/group) were fasted overnight and fed 4 hours post dose. Compounds of the present application were formulated in 10% polyethylene glycol 400/10% propylene glycol/80% glycine buffer (100 mM glycine, 64 mM NaOH, pH 10).\n(§5) The compound was administered by i.v. infusion for 30 minutes at 0.12 mg/kg (dose volume 1 mL/kg at a speed of 2 mL/kg/h) or orally doses of 0.36 mg/kg. Blood samples were collected pre-dose and 0.25, 0.5 (just before the infusion is stopped), 0.75, 1, 1.5, 2.5, 4, 8, 16, 24 hr post dose for i.v. administration group. Blood samples were also collected pre-dose, 0.5, 1, 2, 3, 4, 8, 16 and 24 hr after administration in orally dosing group."}, "[8]": {"assay": "in vivo", "conditions": "male, cynomolgus monkey", "protocol": "as §3, §4, §5"}, "[9]": {"conditions": "Sprague-Dawley (SD), rat, plasma, 1.0 mg/kg iv"}, "[10]": {"conditions": "Sprague-Dawley (SD), rat, plasma, 5.0 mg/kg po"}},
  "note": "Entries after “also recorded” stand apart in the source; their conditions may differ. Like-named read-outs stand apart in the source and are kept apart here.",
  "data": [
    {"smiles": "Cc1cc(-n2nc3c(c2-n2ccn(-c4ccc5c(cnn5C)c4F)c2=O)[C@@H]2CC[C@H](C3)N2C(=O)c2cc3cc([C@H]4CCOC(C)(C)C4)ccc3n2[C@@]2(c3noc(=O)[nH]3)C[C@@H]2C)cc(C)c1F", "note": "[Compound 36, 3-((1S,2S)-1-(5-((S)-2,2-dimethyltetrahydro-2H-pyran-4-yl)-2-((4S,7R)-3-(3-(4-fluoro-1-methyl-1H-indazol-5-yl)-2-oxo-2,3-dihydro-1H-imidazol-1-yl)-2-(4-fluoro-3,5-dimethylphenyl)-2,4,5,6,7,8-hexahydro-4,7-epiminocyclohepta [c]pyrazole-9-carbonyl)-1H-indol-1-yl)-2-methylcyclopropyl)-1,2,4-oxadiazol-5(4H)-one]", "values": [
      {"measurement": "responsiveness of Type 2 diabetic donor islets to glucose stimulation (GSIS)", "setting": "[1]", "value": "increases the responsiveness of Type 2 diabetic donor islets to glucose stimulation"},
      {"measurement": "glucose-stimulated insulin secretion in islets from a non-diabetic donor", "setting": "[2]", "value": "increases glucose-stimulated insulin secretion"},
      {"measurement": "EC50 Ratio", "setting": "[3]; Table 1d, potency ratio of stereoisomer pair (less potent / more potent isomer)", "value": ">94"},
      {"measurement": "EC50", "setting": "[3]; Table 1d, stereoisomer pairs, read-out: EC50", "value": 109, "unit": "nM"},
      {"measurement": "EC50", "setting": "[3]; cAMP accumulation in HEK293 expressing human GLP-1R, no BETP, 30 min room temperature (Method B1a, compounds ID 1-609), Table 1, read-out: EC50", "value": 109, "unit": "nM"},
      {"measurement": "EC50", "setting": "[3]; text to Table 1d, bridge atoms configured into the plane or away from the reader, read-out: potency (EC50)", "value": "< 1000", "unit": "nM"},
      {"measurement": "basal insulin secretion", "setting": "[4]; 2.8 mM glucose, FIG. 1A", "value": "decreased"},
      {"measurement": "stimulated insulin", "setting": "[4]; 11 mM glucose, FIG. 1A", "value": "improved"},
      {"measurement": "glucose-stimulated insulin secretion (GSIS)", "setting": "[4]; FIG. 1", "value": "potentiated GSIS; also recorded: overall relatively better than orforglipron"},
      {"measurement": "insulin secretion index", "setting": "[4]; ratio of stimulated insulin secretion at 11 mM glucose/basal insulin secretion at 2.8 mM glucose, FIG. 1B", "value": "improved"},
      {"measurement": "insulin secretion upon glucose stimulation", "setting": "[5]", "value": "potentiated islets to secrete more insulin upon glucose stimulation compared to DMSO"},
      {"measurement": "Oral F", "setting": "[6]; 5.0 mg/kg po vs 1.0 mg/kg iv", "value": 29.6, "unit": "%"},
      {"measurement": "AUC(0-inf)", "setting": "[6]; [9]", "value": 5050, "unit": "ng·h/mL"},
      {"measurement": "clearance", "setting": "[6]; [9]", "value": 3.33, "unit": "mL/min/kg"},
      {"measurement": "half-life", "setting": "[6]; [9]", "value": 5.04, "unit": "h"},
      {"measurement": "Vd", "setting": "[6]; Sprague-Dawley (SD), rat, plasma, 1.0 mg/kg iv, read-out: Vdss", "value": 1.09, "unit": "L/kg"},
      {"measurement": "AUC(0-inf)", "setting": "[6]; [10]", "value": 7480, "unit": "ng·h/mL"},
      {"measurement": "Cmax", "setting": "[6]; [10]", "value": 610, "unit": "ng/mL"},
      {"measurement": "Tmax", "setting": "[6]; [10]", "value": 3.33, "unit": "h"},
      {"measurement": "half-life", "setting": "[6]; [10]", "value": 4.93, "unit": "h"},
      {"measurement": "exposure compared with Orforglipron", "setting": "[6]; same doses (iv 1 mg/kg and po 5 mg/kg)", "value": "significant higher exposure"},
      {"measurement": "oral bioavailability compared with Orforglipron", "setting": "[7]", "value": "better oral bioavailability"},
      {"measurement": "Oral F", "setting": "[7]; male", "value": 50.2, "unit": "%"},
      {"measurement": "AUC(0-inf)", "setting": "[8]; iv, 0.12 mg/kg", "value": 512, "unit": "ng·h/mL"},
      {"measurement": "Vd", "setting": "[8]; iv, 0.12 mg/kg", "value": 1.13, "unit": "L/kg"},
      {"measurement": "clearance", "setting": "[8]; iv, 0.12 mg/kg", "value": 3.98, "unit": "mL/min/kg"},
      {"measurement": "half-life", "setting": "[8]; iv, 0.12 mg/kg", "value": 4.55, "unit": "h"},
      {"measurement": "AUC(0-inf)", "setting": "[8]; po, 0.36 mg/kg", "value": 771, "unit": "ng·h/mL"},
      {"measurement": "Cmax", "setting": "[8]; po, 0.36 mg/kg", "value": 121, "unit": "ng/mL"},
      {"measurement": "Tmax", "setting": "[8]; po, 0.36 mg/kg", "value": 2, "unit": "h"},
      {"measurement": "half-life", "setting": "[8]; po, 0.36 mg/kg", "value": 4.22, "unit": "h"}
    ]}
  ]
}
